Active and inactive are the calls of the source.
Tests used:
[1] = target: Induced myeloid leukemia cell differentiation protein Mcl-1 (Homo sapiens, UniProt Q07820); format: functional
[2] = target: T1, Estrogen receptor (Homo sapiens, UniProt P03372);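 further: potency for inhibiting coactivator peptide recruitment to the receptor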
T1 sequence (P03372 whole entry): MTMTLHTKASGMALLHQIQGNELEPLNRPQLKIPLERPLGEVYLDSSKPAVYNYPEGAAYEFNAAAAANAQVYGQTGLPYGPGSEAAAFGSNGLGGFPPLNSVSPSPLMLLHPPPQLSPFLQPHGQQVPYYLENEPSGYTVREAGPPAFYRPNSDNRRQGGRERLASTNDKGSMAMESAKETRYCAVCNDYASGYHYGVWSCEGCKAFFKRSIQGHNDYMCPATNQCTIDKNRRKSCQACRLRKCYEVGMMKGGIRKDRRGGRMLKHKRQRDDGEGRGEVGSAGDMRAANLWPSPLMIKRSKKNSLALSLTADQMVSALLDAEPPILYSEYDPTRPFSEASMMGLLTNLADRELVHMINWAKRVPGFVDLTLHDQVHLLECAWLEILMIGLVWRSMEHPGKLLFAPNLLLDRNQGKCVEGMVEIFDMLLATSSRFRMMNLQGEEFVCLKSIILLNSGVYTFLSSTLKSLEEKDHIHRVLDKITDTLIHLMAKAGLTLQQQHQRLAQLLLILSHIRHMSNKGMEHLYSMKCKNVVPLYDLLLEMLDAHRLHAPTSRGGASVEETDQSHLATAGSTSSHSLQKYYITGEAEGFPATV

[3] = target: Genome polyprotein (Hepatitis C virus, UniProt Q2Q167); assay: HCV core protein dimerization inhibitors, dose response, biochemical, TR-FRET (AID 2159); set-up: species or system Hepacivirus hominis;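 further: blocks dimerization of HCV core protein measured by TR-FRET between tagged core106 pairs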
[4] = Fluorescence Cell-Based Dose Response to Identify Inhibitors of Thrombin Receptor-Activating Peptide SFLLRN-Mediated P-Selectin Induction on Platelets. [Related pubchem assays: 1663 (Primary HTS), 1889 (retest at dose ), 1891 (counterscreen), 1678 (Project Summary)]; format: functional
[5] = target: Luciferin 4-monooxygenase (Photinus pyralis, UniProt P08659); assay: firefly luciferase enzyme inhibitors, dose response, biochemical, luminescence (AID 1891)
[6] = Luminescence Cell-Based Dose Confirmation HTS to Identify Inhibitors of Platelet Dense Granule Release. [Related pubchem assays: 1663 (Primary HTS), 1678 (Summary of Project)]; format: functional
[7] = target: FAD-linked sulfhydryl oxidase ALR (Homo sapiens, UniProt P55789); assay: inhibitors of human ALR sulfhydryl oxidase, dose response, biochemical, H2O2 detection, luminescence, cherry-pick (AID 493248)
[8] = M. tuberculosis growth inhibition, HTS (AID 449762); format: functional
[9] = HeLa 2N DNA content increase, dose response, cell-based, IC50 (AID 1117349); format: functional
[10] = cytotoxicity toward Colo320 cells – cell-based, CellTiter-Glo luminescence, IC50, dose response (AID 1117334); format: functional; conditions: COLO 320
[11] = RKO cell viability reduction, dose response, CellTiter-Glo luminescence (AID 1117322); format: functional
[12] = CellTiter-Glo luminescent dose response of DLD-1 viability loss (AID 1117352); format: functional
[13] = SNU-C1 cell viability reduction, dose response, CellTiter-Glo luminescence (AID 1117323); format: functional, cell-based
[14] = HCT116 cell viability decrease, GSK3B pretreatment – CellTiter-Glo, IC50, dose response (AID 1117339); format: functional; conditions: HCT-116
[15] = cytotoxicity toward HT-29 cells – cell-based, CellTiter-Glo luminescence, IC50, dose response (AID 1117330); format: functional
[16] = Concentration-dependent survival of SW480 colon cancer line, luminescence detection with CellTiter-Glo, half-maximal inhibitory concentration (AID 1117338); format: functional
[17] = HeLa 4N DNA content increase, dose response, cell-based, IC50 (AID 1117351); format: functional
[18] = cytotoxicity toward HCT116 cells – cell-based, CellTiter-Glo luminescence, IC50, dose response (AID 1117332); format: functional; conditions: HCT-116
[19] = Dose-response inhibition of insulin secretion in a rat insulinoma line at 5 mM glucose (AID 1117331); format: functional, cell-based; conditions: INS-1E
[20] = target: Cytochrome P450 2C19 (Homo sapiens, UniProt P33261); assay: qHTS Assay for Inhibitors and Substrates of Cytochrome P450 2C19. [Related pubchem assays: 410 ]; format: ADME; conditions: read-out: Potency
[21] = target: T2, Aryl hydrocarbon receptor (Homo sapiens, UniProt P35869); assay: Luminescence-based cell-based high throughput dose response assay for activators of the Aryl Hydrocarbon Receptor (AHR). [Related pubchem assays: 2796 (Primary screen (AHR activators in singlicate)), 2845 (Confirmation screen (AHR activators in triplicate)), 434939 (Counterscreen (PXR activators in triplicate)), 2804 (Summary (AHR activators))]; format: ADME
T2 sequence (P35869 whole entry): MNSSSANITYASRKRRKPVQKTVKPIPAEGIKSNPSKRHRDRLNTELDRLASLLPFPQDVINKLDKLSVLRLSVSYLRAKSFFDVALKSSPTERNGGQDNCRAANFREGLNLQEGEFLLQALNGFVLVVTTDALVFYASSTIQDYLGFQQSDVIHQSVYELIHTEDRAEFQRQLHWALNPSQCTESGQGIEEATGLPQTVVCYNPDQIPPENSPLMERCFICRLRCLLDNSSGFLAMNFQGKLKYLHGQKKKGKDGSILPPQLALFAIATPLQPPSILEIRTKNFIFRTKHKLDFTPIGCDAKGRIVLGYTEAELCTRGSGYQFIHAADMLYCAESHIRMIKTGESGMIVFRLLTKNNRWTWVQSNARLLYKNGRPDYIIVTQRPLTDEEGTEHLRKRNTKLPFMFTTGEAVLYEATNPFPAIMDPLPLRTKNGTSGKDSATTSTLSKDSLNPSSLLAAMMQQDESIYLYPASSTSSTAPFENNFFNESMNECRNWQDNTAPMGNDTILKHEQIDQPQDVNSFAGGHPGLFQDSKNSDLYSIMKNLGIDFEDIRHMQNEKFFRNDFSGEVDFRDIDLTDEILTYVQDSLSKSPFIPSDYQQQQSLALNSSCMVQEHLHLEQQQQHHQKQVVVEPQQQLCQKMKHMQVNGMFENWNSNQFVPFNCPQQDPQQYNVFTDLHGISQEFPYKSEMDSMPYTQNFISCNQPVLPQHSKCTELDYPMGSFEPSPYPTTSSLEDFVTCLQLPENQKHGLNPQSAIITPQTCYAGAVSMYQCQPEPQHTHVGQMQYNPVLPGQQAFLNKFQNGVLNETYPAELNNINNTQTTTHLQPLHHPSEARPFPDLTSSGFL

[22] = target: T3, Bcl-2-related protein A1 (Mus musculus, UniProt Q07440); assay: Bfl-1 inhibitors, primary screen, biochemical, fluorescence polarization, FITC-Bid, mouse (AID 432)
T3 sequence (Q07440 whole entry): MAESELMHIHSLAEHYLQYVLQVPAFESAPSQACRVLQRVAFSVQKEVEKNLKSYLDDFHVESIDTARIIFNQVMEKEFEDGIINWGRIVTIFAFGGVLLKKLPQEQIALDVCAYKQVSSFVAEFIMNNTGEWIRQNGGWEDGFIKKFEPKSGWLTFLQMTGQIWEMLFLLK

[23] = target: T3, Bcl-2-related protein A1; assay: Bfl-1 inhibitors blocking BH3 peptide binding, confirmation, biochemical, TR-FRET, mouse Bfl-1 (AID 621);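 further: TR-FRET binding of GST-Bfl-1 to FITC-labelled Bid peptide via terbium antibody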
[24] = target: Peroxisome proliferator-activated receptor gamma/Nuclear receptor corepressor 2 (Homo sapiens, UniProt P37231+Q9Y618); assay: Counterscreen for NR2E3 inverse agonists: TR-FRET-based biochemical high throughput dose response assay to identify inverse agonists of the interaction between peroxisome proliferator-activated receptor gamma (PPARg) and nuclear receptor co-repressor 2 (NCOR2).; format: functional
[25] = target: Photoreceptor-specific nuclear receptor (Homo sapiens, UniProt Q9Y5X4); assay: NR2E3 inverse agonists, dose response, biochemical, TR-FRET (AID 463256); format: functional
[26] = target: Galanin receptor type 2 (Homo sapiens, UniProt O43603); assay: Dose Response cell-based high-throughput screening assay to identify antagonists of galanin receptor 2 (GALR2). [Related pubchem assays: 828, 866 ]; format: functional
[27] = target: Glucose-6-phosphate 1-dehydrogenase (Homo sapiens, UniProt P11413); assay: human G6PD enzyme inhibitors, dose response, selectivity assay for P. falciparum G6PD inhibitor project, biochemical, fluorescence (AID 504792); format: functional
[28] = target: Large T antigen (Simian virus 40, UniProt P03070); format: functional, Betapolyomavirus macacae;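 further: Confirmatory-stage PubChem screen for compounds that inhibit SV40 T antigen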
[29] = target: Ephrin type-A receptor 4 (Mus musculus, UniProt Q03137); assay: inhibitors of EphA4 binding to KYL peptide, primary screen, biochemical, colorimetric, mouse EphA4 (AID 689); format: functional
[30] = target: Paired box protein Pax-8 (Homo sapiens, UniProt Q06710); assay: inhibitors of PAX8-driven TPO luciferase reporter, dose response, RMG-I cells, cherry-pick (AID 687027); format: functional, cell-based;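 further: luciferase reporter driven by Pax8 target thyroperoxidase promoter measured by SteadyGlo luminescence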
[31] = cytotoxicity in OVCAR8 ovarian cancer cells, dose response, PAX8 project, cell-based, plate reader, dry powder samples (AID 743197); format: functional; conditions: OVCAR-8
[32] = A549 cell cytotoxicity, dose response, CellTiter-Glo luminescence, dry powder, set 17 (AID 1117284); format: functional, cell-based
[33] = HepG2 cell cytotoxicity, dose response, cytotoxicity control, plate reader, dry powder, set 6 (AID 743311); format: functional, cell-based
[34] = target: T3, Bcl-2-related protein A1; assay: Bfl-1 binding inhibitors, SAR follow-up, biochemical, fluorescence polarization (AID 1070)
[35] = inhibitors of intracellular T. cruzi replication, confirmation, NIH3T3 host cells, beta-gal luminescence (AID 2044); format: functional, cell-based;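 further: intracellular parasites grown in NIH/3T3 mouse fibroblasts as host cells; luminescent beta-galactosidase reporter signal from transgenic T. cruzi replicating inside host cells; inhibitors lower the luminescence signal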
[36] = system: INS1; assay: beta cell apoptosis inhibitors, cytokine rescue, dose response, luminescence, retest (AID 449756); format: functional, cell-based; conditions: Rattus norvegicus;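 further: cell death triggered by IL-1 beta plus TNF-alpha plus IFN-gamma mixture; protective hits raise ATP signal compared with cytokine alone wells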
[37] = cells; format: functional, cell-based
[38] = target: Voltage-gated inwardly rectifying potassium channel KCNH2 (Homo sapiens, UniProt Q12809); assay: hERG protection from proarrhythmic block, potency, dose response, cell-based, thallium flux (AID 2121); format: ADME
[39] = cells; format: functional, cell-based; remark: listed apart in the source
[40] = system: Streptococcus; assay: Group A Streptococcus viability loss, dose response, counter-screen for streptokinase expression inhibitor project, luminescence, BacTiterGlo (AID 1915); format: functional, organism-based;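 further: potency for reduction of bacterial viability or growth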
[41] = system: Streptococcus sp. 'group A'; assay: growth inhibition of control SK(-) GAS strain, dose response, counter-screen for streptokinase expression inhibitor project, luminescence, kanamycin, BacTiterGlo, confirmation (AID 1900); format: functional, organism-based
[42] = cytotoxicity toward NIH3T3 fibroblasts, dose response, counter-screen, cell-based, ATP luminescence, mouse fibroblasts (AID 2010); format: functional;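 further: cells exposed to compound for about 90 hours before reading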

Ephrin type-A receptor 4, sequence (Q03137 whole entry): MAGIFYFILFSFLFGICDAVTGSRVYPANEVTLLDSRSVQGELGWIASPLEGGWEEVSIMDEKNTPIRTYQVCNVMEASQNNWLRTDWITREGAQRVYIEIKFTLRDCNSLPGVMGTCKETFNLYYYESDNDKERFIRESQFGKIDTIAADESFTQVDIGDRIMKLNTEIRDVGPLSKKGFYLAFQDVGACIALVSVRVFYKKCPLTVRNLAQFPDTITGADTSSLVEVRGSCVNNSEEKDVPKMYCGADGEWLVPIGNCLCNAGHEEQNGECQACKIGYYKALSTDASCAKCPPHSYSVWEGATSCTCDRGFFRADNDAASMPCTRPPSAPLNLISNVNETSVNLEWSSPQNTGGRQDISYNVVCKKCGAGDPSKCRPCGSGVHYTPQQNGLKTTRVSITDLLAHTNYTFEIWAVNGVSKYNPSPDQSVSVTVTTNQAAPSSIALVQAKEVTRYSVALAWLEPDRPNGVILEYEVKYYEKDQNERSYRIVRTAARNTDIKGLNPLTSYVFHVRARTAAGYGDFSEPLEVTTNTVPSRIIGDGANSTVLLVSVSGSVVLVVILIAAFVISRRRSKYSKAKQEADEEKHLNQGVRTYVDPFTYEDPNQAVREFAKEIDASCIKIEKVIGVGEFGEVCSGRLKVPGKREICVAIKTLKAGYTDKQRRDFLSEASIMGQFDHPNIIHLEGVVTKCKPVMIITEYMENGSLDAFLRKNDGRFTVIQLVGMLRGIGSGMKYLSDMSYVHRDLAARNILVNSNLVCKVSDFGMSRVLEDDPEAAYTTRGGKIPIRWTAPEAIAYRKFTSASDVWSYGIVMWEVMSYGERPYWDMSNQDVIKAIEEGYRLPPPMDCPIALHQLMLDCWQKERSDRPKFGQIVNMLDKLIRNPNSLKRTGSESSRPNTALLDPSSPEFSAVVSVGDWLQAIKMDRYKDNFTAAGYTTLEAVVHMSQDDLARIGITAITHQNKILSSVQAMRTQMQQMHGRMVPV
Glucose-6-phosphate 1-dehydrogenase, sequence (P11413 whole entry): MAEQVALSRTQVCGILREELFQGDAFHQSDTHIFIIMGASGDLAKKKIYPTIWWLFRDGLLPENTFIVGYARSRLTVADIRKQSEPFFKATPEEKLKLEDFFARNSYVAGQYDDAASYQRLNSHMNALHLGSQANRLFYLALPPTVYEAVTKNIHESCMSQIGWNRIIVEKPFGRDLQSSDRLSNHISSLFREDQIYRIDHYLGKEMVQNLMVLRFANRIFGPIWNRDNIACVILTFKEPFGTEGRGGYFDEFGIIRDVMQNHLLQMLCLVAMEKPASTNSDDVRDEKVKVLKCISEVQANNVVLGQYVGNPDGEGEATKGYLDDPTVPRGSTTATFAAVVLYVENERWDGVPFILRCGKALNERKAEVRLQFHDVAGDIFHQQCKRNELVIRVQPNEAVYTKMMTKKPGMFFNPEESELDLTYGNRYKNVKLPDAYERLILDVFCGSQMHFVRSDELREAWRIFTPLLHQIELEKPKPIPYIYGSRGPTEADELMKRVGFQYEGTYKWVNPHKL
Paired box protein Pax-8, sequence (Q06710 whole entry): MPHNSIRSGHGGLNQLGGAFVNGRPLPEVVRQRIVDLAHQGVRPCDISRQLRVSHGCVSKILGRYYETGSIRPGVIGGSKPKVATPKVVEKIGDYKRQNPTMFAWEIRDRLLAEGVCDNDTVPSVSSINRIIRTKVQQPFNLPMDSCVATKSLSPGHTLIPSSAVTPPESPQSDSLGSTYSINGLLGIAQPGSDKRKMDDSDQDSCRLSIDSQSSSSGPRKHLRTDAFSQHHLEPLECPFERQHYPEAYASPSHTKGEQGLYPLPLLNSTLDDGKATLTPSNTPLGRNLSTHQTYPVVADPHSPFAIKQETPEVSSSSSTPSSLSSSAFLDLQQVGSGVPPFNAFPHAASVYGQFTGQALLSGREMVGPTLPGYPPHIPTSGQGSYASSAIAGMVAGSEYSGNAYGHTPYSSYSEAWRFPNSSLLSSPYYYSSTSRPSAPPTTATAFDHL
Large T antigen, sequence (P03070 whole entry): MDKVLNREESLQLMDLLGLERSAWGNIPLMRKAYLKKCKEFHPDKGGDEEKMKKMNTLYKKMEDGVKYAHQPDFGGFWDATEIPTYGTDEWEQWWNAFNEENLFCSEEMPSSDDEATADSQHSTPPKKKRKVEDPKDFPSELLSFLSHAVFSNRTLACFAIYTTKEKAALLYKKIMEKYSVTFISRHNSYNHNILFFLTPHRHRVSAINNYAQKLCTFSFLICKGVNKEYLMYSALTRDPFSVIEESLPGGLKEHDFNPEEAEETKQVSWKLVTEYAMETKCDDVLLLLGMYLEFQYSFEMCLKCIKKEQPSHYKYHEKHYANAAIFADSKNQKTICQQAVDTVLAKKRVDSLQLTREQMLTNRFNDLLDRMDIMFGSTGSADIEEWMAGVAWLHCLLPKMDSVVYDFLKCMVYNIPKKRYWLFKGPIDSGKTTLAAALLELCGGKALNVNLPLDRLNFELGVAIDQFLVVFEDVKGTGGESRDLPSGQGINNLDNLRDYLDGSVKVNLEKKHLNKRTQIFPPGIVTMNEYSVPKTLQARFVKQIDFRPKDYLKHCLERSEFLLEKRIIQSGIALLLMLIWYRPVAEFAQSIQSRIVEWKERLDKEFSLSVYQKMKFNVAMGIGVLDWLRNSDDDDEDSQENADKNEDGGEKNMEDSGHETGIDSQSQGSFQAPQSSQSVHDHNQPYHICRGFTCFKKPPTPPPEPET
FAD-linked sulfhydryl oxidase ALR, sequence (P55789 whole entry): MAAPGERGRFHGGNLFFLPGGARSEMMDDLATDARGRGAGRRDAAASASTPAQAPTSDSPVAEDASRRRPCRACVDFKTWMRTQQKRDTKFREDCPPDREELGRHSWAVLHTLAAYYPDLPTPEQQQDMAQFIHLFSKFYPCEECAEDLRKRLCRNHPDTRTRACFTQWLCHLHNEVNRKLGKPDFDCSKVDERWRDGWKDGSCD
Galanin receptor type 2, sequence (O43603 whole entry): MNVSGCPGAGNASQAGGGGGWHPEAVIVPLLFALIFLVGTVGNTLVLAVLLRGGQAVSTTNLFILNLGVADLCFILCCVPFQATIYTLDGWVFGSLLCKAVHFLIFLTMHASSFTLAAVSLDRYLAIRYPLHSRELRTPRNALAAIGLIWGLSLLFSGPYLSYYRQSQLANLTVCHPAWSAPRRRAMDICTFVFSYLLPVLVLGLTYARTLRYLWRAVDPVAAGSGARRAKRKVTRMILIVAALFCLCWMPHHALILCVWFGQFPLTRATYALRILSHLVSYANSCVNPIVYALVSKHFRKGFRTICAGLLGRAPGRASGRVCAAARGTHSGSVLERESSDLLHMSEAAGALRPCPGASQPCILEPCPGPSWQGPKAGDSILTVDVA
Voltage-gated inwardly rectifying potassium channel KCNH2, sequence (Q12809 whole entry): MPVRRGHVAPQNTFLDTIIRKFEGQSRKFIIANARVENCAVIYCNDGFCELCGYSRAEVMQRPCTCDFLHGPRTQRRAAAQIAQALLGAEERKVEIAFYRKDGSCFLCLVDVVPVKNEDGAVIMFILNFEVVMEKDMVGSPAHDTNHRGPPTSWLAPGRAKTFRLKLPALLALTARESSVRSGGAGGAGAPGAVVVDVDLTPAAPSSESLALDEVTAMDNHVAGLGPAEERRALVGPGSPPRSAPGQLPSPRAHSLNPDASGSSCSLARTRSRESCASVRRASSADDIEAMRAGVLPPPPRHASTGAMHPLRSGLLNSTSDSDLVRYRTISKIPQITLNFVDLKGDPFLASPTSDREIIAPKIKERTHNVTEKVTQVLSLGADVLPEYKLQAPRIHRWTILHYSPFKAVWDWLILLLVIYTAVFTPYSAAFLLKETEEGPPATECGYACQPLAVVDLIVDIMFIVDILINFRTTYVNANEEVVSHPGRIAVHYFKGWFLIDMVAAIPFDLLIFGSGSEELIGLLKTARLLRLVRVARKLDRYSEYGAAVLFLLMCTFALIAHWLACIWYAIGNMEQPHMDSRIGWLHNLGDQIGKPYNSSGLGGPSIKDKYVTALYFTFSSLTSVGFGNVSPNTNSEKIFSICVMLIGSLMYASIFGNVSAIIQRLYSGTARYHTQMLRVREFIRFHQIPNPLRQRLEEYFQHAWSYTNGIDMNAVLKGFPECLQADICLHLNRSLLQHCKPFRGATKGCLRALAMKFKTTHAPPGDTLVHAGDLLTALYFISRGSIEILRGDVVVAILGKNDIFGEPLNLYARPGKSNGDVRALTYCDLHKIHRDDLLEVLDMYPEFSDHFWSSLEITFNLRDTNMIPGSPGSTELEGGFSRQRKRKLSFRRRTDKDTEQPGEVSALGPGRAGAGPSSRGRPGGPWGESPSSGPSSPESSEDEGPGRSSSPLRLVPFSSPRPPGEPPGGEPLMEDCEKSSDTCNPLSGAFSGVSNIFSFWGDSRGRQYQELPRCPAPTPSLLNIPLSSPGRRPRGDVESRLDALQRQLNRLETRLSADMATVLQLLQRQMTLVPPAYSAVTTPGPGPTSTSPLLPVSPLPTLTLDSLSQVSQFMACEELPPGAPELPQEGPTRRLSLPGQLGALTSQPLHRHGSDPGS
Luciferin 4-monooxygenase, sequence (P08659 whole entry): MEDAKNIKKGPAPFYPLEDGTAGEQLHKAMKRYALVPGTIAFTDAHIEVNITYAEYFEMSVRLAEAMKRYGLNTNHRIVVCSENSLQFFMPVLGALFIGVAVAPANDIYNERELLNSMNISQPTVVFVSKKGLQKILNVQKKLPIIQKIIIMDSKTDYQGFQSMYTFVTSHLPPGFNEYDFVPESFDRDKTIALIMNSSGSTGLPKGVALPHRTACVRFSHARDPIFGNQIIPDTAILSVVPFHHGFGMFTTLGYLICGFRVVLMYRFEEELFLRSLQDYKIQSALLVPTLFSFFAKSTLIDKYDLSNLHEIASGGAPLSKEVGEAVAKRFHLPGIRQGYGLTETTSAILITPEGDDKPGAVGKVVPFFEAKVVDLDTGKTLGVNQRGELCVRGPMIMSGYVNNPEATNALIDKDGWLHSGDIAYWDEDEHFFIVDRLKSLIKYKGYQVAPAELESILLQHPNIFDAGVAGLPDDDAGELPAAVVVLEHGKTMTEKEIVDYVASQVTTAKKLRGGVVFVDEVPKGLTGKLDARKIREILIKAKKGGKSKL

Cc1oc(-c2ccc(Cl)cc2)cc1-c1nn2c(-c3ccoc3C)nnc2s1
IC50 [1]: 3.8 µM (not active) | IC50 [2]: 2.77 µM (active) | IC50 [3]: > 49.8 µM (not active)

C/C(=N/NC(=O)C1CCCC1)c1ccc(NC(=O)C(F)(F)F)cc1
EC50 [4]: < 1 µM (active) | EC50 [5]: > 112 µM (not active) | EC50 [6]: 3.55 µM (active)

O=C1CCC(=O)N1CNc1ccc(Oc2ccccc2)cc1
AC50 [7]: 0.166 µM (active) | IC50 [8]: > 100 µM (active)

O=C1C2CC=CCC2C(=O)N1SC(Cl)(Cl)Cl (stereo not drawn) [CAPTAN]
IC50 [9]: > 10 µM (inactive) | IC50 [10]: 0.306 µM (active) | IC50 [11]: 0.402 µM (active) | IC50 [12]: 0.348 µM (active) | IC50 [13]: 0.903 µM (active) | IC50 [14]: 2.21 µM (active) | IC50 [15]: 0.5 µM (active) | IC50 [16]: 0.0788 µM (active) | IC50 [17]: > 10 µM (inactive) | IC50 [18]: 1.76 µM (active)

OC(CCN1CCCCC1)(c1ccccc1)c1ccccc1 [PRIDINOL]
IC50 [19]: 27 µM (inactive)

COc1ccccc1N1CCN(CCN(C(=O)c2ccc(I)cc2)c2ccccn2)CC1
AC50 [20]: 10 µM (inconclusive)

CC(=O)c1noc(C)c1C(=O)Nc1nccs1
EC50 [21]: 6.46 µM (active)

COc1ccc(N2C(=O)C(Cl)=C(Nc3c(C)n(C)n(-c4ccccc4)c3=O)C2=O)cc1
IC50 [22]: > 100 µM (not active) | IC50 [23]: > 100 µM (not active)

O=C(Cc1ccccc1)Nc1ccc2oc(-c3ccncc3)nc2c1
IC50 [24]: 6.54 µM (active) | IC50 [25]: 6.31 µM (active)

CCOC(=O)c1ccc(N2C(=O)CC(N3CCC(O)(c4ccc(Br)cc4)CC3)C2=O)cc1 (stereo not drawn)
IC50 [26]: > 42 µM (not active)

COc1ccccc1N1CSC2=C(C#N)C(c3ccc(SC)cc3)CC(=O)N2C1 (stereo not drawn)
IC50 [27]: > 80 µM (inactive) | IC50 [28]: 28.4 µM (active) | IC50 [29]: 21.5 µM (active)

C[C@H](O)C#Cc1ccc2c(c1)O[C@H](CN(C)Cc1ccc(-c3ccccc3)cc1)[C@H](C)CN([C@@H](C)CO)S2(=O)=O
AC50 [30]: 5.87 µM (active) | AC50 [31]: 50 µM (active) | AC50 [32]: > 52 µM (inactive)

CC(C)Oc1ccc(OCCn2c(=S)[nH]c3ccccc32)cc1
AC50 [33]: > 52 µM (inactive)

O=C1C(Cl)=C(N2CCN(C/C=C/c3ccccc3)CC2)C(=O)N1c1ccc(Cl)c(Cl)c1
IC50 [34]: 0.594 µM (active) | IC50 [23]: 0.73 µM (active)

Cc1ccc(N=Nc2ccc(O)c3ncccc23)cc1
EC50 [35]: 0.686 µM (active) | AC50 [36]: 1.3 µM (active) | EC50 [37]: > 350 µM (not active) | EC50 [38]: 2.02 µM (active) | EC50 [39]: 9.69 µM (active) | EC50 [40]: 1.56 µM (active) | EC50 [41]: 0.165 µM (active) | EC50 [42]: 32.7 µM (active)

— ChEMBL document CHEMBL1201862, “PubChem BioAssay data set” (2004)
